In PMC11511194, “Key Factors for Improving Predictive Accuracy and Avoiding Overparameterization of the PBPK Absorption Model in Food Effect Studies of Weakly Basic Water-Insoluble Compounds in Immediate Release Formulations” (Pharmaceutics, 2024):
≈ marks a conversion by molar mass, not a printed value. Like-named read-outs stand apart in the source and are kept apart here.

What was measured:
[1] = Two-stage biorelevant dissolution (transfer test FaSSGF to FaSSIF); assay type: physicochemical; details: formulation, gastric to intestinal chamber in vitro
Procedure: Because the solubility of weakly basic water-insoluble compounds is higher in the acidic gastric environment compared to the near-neutral intestinal environment, and that bile salts can enhance the solubility of poorly soluble drugs in the intestine, a two-stage dissolution test was performed to explore the drug transfer process from the stomach to the intestine. The transfer apparatus comprised two USP 2 vessels representing the gastric and intestinal chambers, which are interconnected via a peristaltic pump to simulate first-order gastric emptying dynamics. […] Additional samples in the two-stage dissolution test were analyzed every minute with the same instrument. […]
Precipitation parameters, such as critical supersaturation ratio (CSC) and precipitation rate constant (PRC), were evaluated when precipitation occurs in the neutral intestinal environment after the mixture of solution and undissolved substance is transferred from the gastric chamber in vitro. These parameters were evaluated by fitting the two-stage dissolution profile according to the crystallization kinetics equations [28, 29, 30]. […] The calibrated permeability of drugs, as determined using the Caco-2 Transwell model, was used to represent the permeability of drugs in vivo [31]. […]

physchem = details: for User log K m:w, ion / User log K m:w, neutral: bile micelle to buffer partition, Evaluated by SIVA software
Procedure: In this manuscript, PBPK absorption models were developed using SimCYP software (version 20, Sheffield, UK, Certara Company), while the primary solubility parameters were evaluated utilizing SIVA software (version 4, Sheffield, UK, Certara Company). The comprehensive process of parameter evaluation is as follows: Intrinsic solubility (So) and salt limiting solubility factor (SF) values were obtained according to the solubility of the API in different aqueous media and the Henderson–Hasselbalch equation (Equation (1)). Subsequently, the bile micelle to buffer partition coefficients (Km:w) in both ionized (Km:w, ionized) and un-ionized (Km:w, un-ionized) states were evaluated based on the solubility of the APIs in FaSSGF, FaSSIF, and FeSSIF media, employing Equation (1). (1) STot=So×Soscalart×1+BSt/CH2O×Km:w, un-ionized+Sit×1+BSt/CH2O×Km:w, ionized+Sbound,excipt where t is the time; STot is the total solubility of the drug in a given medium (aqueous or biorelevant medium); So is the intrinsic solubility of the drug; Soscalar is the scalar for So used to capture the increased solubility of the drug in a given medium; Si is the ionized aqueous solubility; [BS] is the bile salt concentration in a given biorelevant medium; CH2O is the concentration of water; Km:w, ionized/un-ionized are the bile micelle/buffer partition coefficients for ionized and un-ionized species, respectively; and Sbound, excip is the amount of drug bound to the excipient at a given excipient concentration.

[2] = Equilibrium solubility of APIs in aqueous and biorelevant media; assay type: physicochemical; details: 37 °C
Procedure: To evaluate the effect of pH and bile salt concentration within the physiological range on the solubility of APIs, the equilibrium solubility of APIs in various aqueous and biorelevant media was comprehensively investigated. Specifically, aqueous buffers, including pH 1.0 and pH 2.0 HCl solutions; pH 3.0 and pH 4.5 acetum; and pH 5.0, pH 6.5, and pH 8.0 phosphate buffer solutions (PBS), were prepared according to the guidelines outlined in the Chinese Pharmacopoeia. Additionally, biorelevant media such as FaSSGF, FaSSIF, and FeSSIF were prepared following the prescribed method for biorelevant power. An excess amount of solid drug powder was added to vials containing 20 mL of the corresponding medium, and tests were conducted with continuous stirring at 37 °C for 24 h. Drug concentration was detected every minute through an in situ fiber-optic UV dissolution real-time monitoring system (Pion Scientific Instruments, Billerica, MA, USA). All measurements were performed in triplicate.

Caco-2 = details: Apical pH : Basolateral pH 7.4 : 7.4, Passive&Active, cited from earlier work
[3] = cited from earlier work
[4] = Particle size distribution of the APIs (laser diffraction, dry method); assay type: physicochemical; details: API bulk drug
Procedure: The particle size of the API directly influences the dissolution rate of formulations and the overall bioavailability of the compound, making it a necessary parameter for establishing the PBPK absorption model. To determine the particle size distributions of the APIs employed in the formulation of rivaroxaban, ticagrelor, and PB-201, the bulk drugs used in the corresponding formulations were measured by the dry method with a Malvern Mastersizer laser diffraction size analyzer (Master 2000, Malvern Instruments Limited, Malvern, UK). Each sample was tested once.

[5] = HCl solution, simulated gastric fluid, thermodynamic from solid, pH 1.0 HCl
[6] = HCl solution, simulated gastric fluid, thermodynamic from solid, pH 2.0 HCl
[7] = aqueous buffer, thermodynamic from solid, pH 3.0 Acetic acid buffer
[8] = aqueous buffer, thermodynamic from solid, pH 4.5 Acetic acid buffer
[9] = phosphate buffer solution (PBS), aqueous buffer, thermodynamic from solid, pH 5.0 PBS
[10] = phosphate buffer solution (PBS), pH 6.5 PBS
[11] = phosphate buffer solution (PBS), pH 8.0 PBS
[12] = thermodynamic from solid, pH 5.0 FeSSIF
[13] = thermodynamic from solid, pH 6.5 FaSSIF

behaviour after transfer from FaSSGF to FaSSIF [1] | User log K m:w, ion (physchem) | User log K m:w, neutral (physchem) | solubility thermodynamic at 24 h [2, 5] | solubility thermodynamic at 24 h [2, 6] | solubility thermodynamic at 24 h [2, 7] | solubility thermodynamic at 24 h [2, 8] | solubility thermodynamic at 24 h ([2]; pH 1.6 FaSSGF) | solubility thermodynamic at 24 h [2, 9] | solubility thermodynamic at 24 h [2, 10] | solubility thermodynamic at 24 h [2, 11] | solubility thermodynamic at 24 h [2, 12] | solubility thermodynamic at 24 h [2, 13] | D (0.1) [4] | D (0.5) [4] | D (0.9) [4] | SMILES | other results
continued to dissolve | 8.226 | 5.941 | 18 µg/mL (≈ 34.4 µM) | 8.04 µg/mL (≈ 15.4 µM) | 11.6 µg/mL (≈ 22.2 µM) | 7.47 µg/mL (≈ 14.3 µM) | 14.2 µg/mL (≈ 27.2 µM) | 6.35 µg/mL (≈ 12.2 µM) | 5.97 µg/mL (≈ 11.4 µM) | 5.52 µg/mL (≈ 10.6 µM) | 4050 µg/mL (≈ 7750 µM) | 306 µg/mL (≈ 586 µM) | 3.045 μm | 6.926 μm | 13.605 μm | CCCSc1nc(N[C@@H]2C[C@H]2c2ccc(F)c(F)c2)c2nnn([C@@H]3C[C@H](OCCO)[C@@H](O)[C@H]3O)c2n1 [Ticagrelor] | Caco-2 permeability (Caco-2; supplement ref 19): 6.0 10-6cm/s; Blood-to-plasma partition ratio ([3]; ticagrelor, supplement ref 18): 0.592; Fraction unbound in plasma ([3]; ticagrelor, supplement ref 18): 0.006
continued to dissolve | 3.894 | 3.330 | 6.84 µg/mL (≈ 15.7 µM) | 8.18 µg/mL (≈ 18.8 µM) | 10.6 µg/mL (≈ 24.3 µM) | 6.55 µg/mL (≈ 15 µM) | 7.5 µg/mL (≈ 17.2 µM) | 4.85 µg/mL (≈ 11.1 µM) | 5.84 µg/mL (≈ 13.4 µM) | 5.87 µg/mL (≈ 13.5 µM) | 10.6 µg/mL (≈ 24.3 µM) | 6.17 µg/mL (≈ 14.2 µM) | 3.809 μm | 7.955 μm | 15.532 μm | O=C(NC[C@H]1CN(c2ccc(N3CCOCC3=O)cc2)C(=O)O1)c1ccc(Cl)s1 [Rivaroxaban] | solubility (physchem; aqueous buffer): 5 µg/mL (≈ 11.5 µM); Caco-2 permeability (Caco-2; supplement ref 4): 8.103 10-6cm/s; Fraction unbound in plasma ([3]; rivaroxaban, supplement ref 2): 0.065; Blood-to-plasma partition ratio ([3]; rivaroxaban, supplement ref 7): 0.714
